Results as given in patent publication US20230097801A1, “METHODS OF INCREASING CELL PHAGOCYTOSIS” (National Health Research Institutes, priority 2021, published 2023).
Entries after “also recorded” stand apart in the source; their conditions may differ. Read-outs that look alike come from different tables or passages of the source.

What was measured:
CD47 [1] = test: Flow cytometry, anti-human CD47 CC2C6 antibody binding on Raji cell surface; assay type: cell-based
Method: (§1) Binding between CD47 and SIRPα was studied by measuring the level of CD47 binding using any suitable method. Flow cytometric analysis is useful to quantify the level of binding of CD47 to antibody CC2C6, which is then subjected to an immune-staining procedure using fluorochrome-conjugated secondary antibody followed by analysis of the immune-staining signal with a flow cytometry instrument to obtain the level of the CD47-CC2C6 binding. In another method, analysis of CD47 is performed using SIRPα-Fc formed from SIRPα fused with human IgG1, which is then subjected to an immune-staining procedure using fluorochrome-conjugated secondary antibody against human IgG1, followed by analysis of the immune-staining signal. SIRPα is expressed on the surface of a myeloid cell such as macrophage, monocyte, neutrophil, or dendritic cell. Alternatively, SIRPα is fused with human IgG1 to form a SIRPα-Fc recombinant protein. […] An anti-cancer agent (e.g., rituximab) can be used together with a compound of formula (I). Useful anti-cancer agents are described above including anti-PD-L1 antibodies, anti-CD20 antibodies, anti-HER2 antibodies, anti-EGFR antibodies, and anti-CD47 antibodies. Other suitable anti-cancer agents are chemotherapeutic agents such as doxorubicin, epirubicin, idarubicin, methotrexate, mitoxantrone, oxaliplatin, and cyclophosphamide.
Human B-cell lymphoma Raji cells were purchased from BCRC, Taiwan. Raji cells were maintained at 37° C. under 5% CO2 in RPMI-1640 medium (Hyclone, Marlborough, Mass.) supplemented with 10% fetal bovine serum (FBS) (SAFC, Sigma-Aldrich, St. Louis, Mo.) containing 2 mM L-glutamine (Hyclone, Marlborough, Mass.), 10 mM HEPES (Hyclone, Marlborough, Mass.) and 1 mM sodium pyruvate (Hyclone, Marlborough, Mass.).
(§2) Antibody conjugates and extracellular domain of SIRPα used to analyze cell surface CD47 binding include anti-human CD47 CC2C6, 2D3, recombinant human SIRPα/CD172a Fc chimer protein, and anti-human IgG Fc. To determine inhibition of CD47 binding, cancer cells were treated with compounds of formula (I) at various concentrations for 4 days. Thereafter, the cells were washed with PBS containing 0.5% BSA (FACS buffer) followed by incubation with fluorochrome-labeled antibodies to human CD47 (i.e., CC2C6 and 2D3) at 1:50 dilution in FACS buffer for 30 minutes at 4° C. Compounds of formula (I) produced a dose-dependent inhibition of anti-CD47 CC2C6 antibody that recognized CD47 and SIRPα binding site on the tumor cell surface including B-cell lymphoma Raji cells, colon cancer cells DLD-1, and ovarian cancer SK-OV-3 cells (see FIGS. 1A, 1B, and 1C, respectively).

CD47 [2] = test: Flow cytometry, anti-human CD47 CC2C6 antibody binding on DLD-1 cell surface; assay type: cell-based
Method: as §1
Human colon cancer DLD-1 cells were obtained from NHRI IBPR HTS Lab, Taiwan. DLD-1 cells were maintained under the same conditions described immediately above.
as §2

CD47 [3] = test: Flow cytometry, anti-human CD47 CC2C6 antibody binding on SK-OV-3 cell surface; assay type: cell-based
Method: as §1
SK-OV-3 cells were purchased from ATCC (Manassas, Va.). SK-OV-3 cells were maintained at 37° C. under 5% CO2 in McCoy's 5a medium (Gibco, ThermoFisher, Waltham, Mass.) with 10% fetal bovine serum (FBS) (Sigma-Aldrich, St Louis, Mo.), and 2 mM L-glutamine.
as §2

CD47 [4] = test: Flow cytometry, anti-human CD47 2D3 control antibody binding on Raji cell surface; assay type: cell-based; conditions: Raji cells
Method: as §2

Mouse pk profiles = assay type: in vivo
[5] = Plasma and tumor concentrations in Raji xenograft mice; assay type: in vivo; conditions: for concentration at 2 h: 2 hours after the last dose
Method: A pharmacokinetic study was conducted to evaluate plasma and tumor concentrations of Compound 34 using human B-cell lymphoma Raji xenograft tumors. One million Raji cells in culture medium and matrigel (1:1, v/v) were injected subcutaneously into the left flank region of each mouse. Treatments were initiated after randomization with inclusion of tumors at approximately 90 mm^3. A dosing vehicle for Compound 34 was prepared using 10% DMA: 40% PEG400: 50% (1% CMC) (v/v/v) and was dosed orally (p.o.) at 100 mg/kg once a day and 5 days a week (Q.D.*5). The mice were treated with either the vehicle control or Compound 34 for 3 weeks. They were sacrificed 2, 4, 8, or 24 hours after the last dose (n=4 per time point). Tumor and plasma were collected to determine concentrations of Compound 34.

CD47 [6] = test: Pharmacodynamic study, CC2C6 binding and total CD47 on Raji xenograft tumor cells; assay type: in vivo, human; conditions: 100 mg/kg p.o. QD*5, 10 days
Method: A pharmacodynamic study was also conducted to evaluate target engagement of Compound 34. In this study, one million Raji cells in culture medium and matrigel (1:1, v/v) were injected subcutaneously into the left flank region of each mouse. Treatments were initiated after randomization with inclusion of tumors at approximately 150 mm^3. A dosing vehicle for Compound 34 was prepared using 10% DMA: 40% PEG400: 50% (1% CMC) (v/v/v) and was dosed orally (p.o.) at 100 mg/kg once a day and 5 days a week (Q.D.*5). The mice were treated with either the vehicle control or Compound 34 for 10 days. They were then sacrificed 24 hours after the last dose (n=4 per group). Tumors were harvested and isolated into single cell suspensions for flow cytometry analysis. Unexpectedly, Compound 34 reduced 56% of anti-CD47 CC2C6 antibody binding on the tumor cell surface, as indicated by a decreasing level of anti-CC2C6^+ tumor cells in the Compound 34-treated mice as compared to the vehicle-treated mice.

For `O=C1NC[C@H](c2ccc(-c3csc(C(F)(F)F)c3)c(F)c2F)N1c1ccc2[nH]cnc2c1` [Compound 34], the IC50 (CD47 [1]; B-cell Lymphoma (Raji cells), 4 days treatment, read-out: IC50, inhibition of CC2C6 binding) was 1100 nM, the “inhibition of binding of anti-human CD47 antibody CC2C6 (in words)” value (CD47 [1]; Raji cells) was “specifically affected anti-CD47 CC2C6 antibody; also recorded: effectively inhibited” and the IC50 (CD47 [2]; Colon Cancer (DLD-1 cells), 4 days treatment, read-out: IC50, inhibition of CC2C6 binding) was 580 nM. The “inhibition of binding of anti-human CD47 antibody CC2C6 (in words)” value (CD47 [2]; DLD-1 cells) was “effectively inhibited”, the IC50 (CD47 [3]; Ovarian Cancer (SK-OV3 cells), 4 days treatment, read-out: IC50, inhibition of CC2C6 binding) was 190 nM and the “inhibition of binding of anti-human CD47 antibody CC2C6 (in words)” value (CD47 [3]; SK-OV-3 cells) was “effectively inhibited”. For the same compound, the “inhibition of binding of anti-human CD47 antibody 2D3 (in words)” value (CD47 [4]) was “not by anti-CD47 control antibody 2D3; also recorded: did not inhibit”, the “AUC Plasma” value (Mouse pk profiles; IV (2 mg/kg)) was 8869 ng·h/g and the “AUC Plasma” value (Mouse pk profiles; PO (30 mg/kg)) was 56451 ng·h/g. It also gave a clearance (Mouse pk profiles; plasma, IV (2 mg/kg)) of 4.6 mL/min/kg, a Cmax (Mouse pk profiles; plasma, PO (30 mg/kg)) of 1980 ng/mL and a bioavailability (Mouse pk profiles; plasma, PO (30 mg/kg) vs IV (2 mg/kg)) of 43%. For the same compound, the half-life (Mouse pk profiles; plasma, PO (30 mg/kg), read-out: T1/2 (h) Plasma (converted)) was 9.3 h, the tumor concentration ([5]; 100 mg/kg p.o. QD*5 for 3 weeks, next 22 hours (2 to 24 hours after the last dose)) was ≥ 27,507 ng/g tissue weight and the concentration at 2 h ([5]; mouse, plasma, oral, 100 mg/kg p.o. QD*5 for 3 weeks, read-out: plasma concentration) was 18600 ng/mL. For the same compound, the concentration at 24 h ([5]; mouse, plasma, oral, 100 mg/kg p.o. QD*5 for 3 weeks, 24 hours after the last dose) was 5360 ng/mL, the concentration at 2 h ([5]; mouse, tumor, oral, 100 mg/kg p.o. QD*5 for 3 weeks, read-out: tumor concentration) was 29700 ng/g and the “tumor concentrations versus plasma (in words)” value ([5]; within 24 hours post treatment) was “much higher than those in plasma”. For the same compound, the “total CD47 expression level on the tumor cell surface” value (CD47 [6]) was “did not affect a total CD47 expression level; also recorded: without affecting a total CD47 expression level”.
